Experimental data from US20060040951A1, “Use of 5-ht2 receptor antagonists for the treatment of sleep disorders” (Merck Patent GmbH, priority 2002, published 2006).

Experiments:
[1] = cited from earlier work
rats [2] = assay: Brain-wave (EEG) recording of rats over 6 hours during the dark phase; assay type: in vivo, rat
rats [3] = assay: Example B: EEG sleep-stage recording of non-anaesthetised rats over 12 hours, crossover study versus vehicle; assay type: in vivo, rat
Experimental: In order to measure the brain waves, EEG electrodes are implanted into the brain of anaesthetised rats. After a recovery time of 15 days, these electrodes are connected to an amplifier via a flexible cable, and the brain waves of the non-anaesthetised animals are recorded over 12 hours. (3-Cyano-1H-indol-7-yl)-[4-(4-fluorophenethyl)piperazin-1-yl]methanone is dissolved in advance in a concentration of 0.1 ml/100 g of peanut oil. This solution (compound) or, for comparison, merely the solvent (vehicle) is administered orally to the test animals in a dose of 3 mg/kg. From the filtered and amplified brain-wave signals, the sleep stages are evaluated via Fourier spectral analysis including certain criteria. The REM and non-REM sleep stages can be identified with reference to the patterns. The experimental results are shown in Tables 1 (effect of the substance) and 2 (significances of the measurement values). It becomes clear that (3-cyano-1H-indol-7-yl)-[4-(4-fluorophenethyl)piperazin-1-yl]methanone results in a significant extension both of non-REM sleep and of REM sleep and that these extensions are significant.
This experiment is a crossover study. This means that one and the same animal receives either first solvent (vehicle) and then, after a waiting time of one week, the test substance (3-cyano-1H-indol-7-yl)-[4-(4-fluorophenethyl)piperazin-1-yl]methanone (compound), or the administration is carried out in the reverse sequence.
The measured values after vehicle or compound administration are compared with one another using the statistical method of analysis of variance (ANOVA). The p value is a statistical measure of the probability that a difference occurs by chance between the measurement values or is caused by the substance administration. According to international standards, a p value of below 0.05 is regarded as “significant”.
It is clear from FIG. 1 that in particular stages 3 and 4, which are regarded as slow-wave sleep, are extended in non-REM sleep. […] The term delta power or delta waves denotes the “slow” waves recorded in the EEG which are characteristic of slow-wave sleep stages. For each rat, the hour average after solvent (vehicle) treatment was firstly determined and subtracted from the value after substance treatment.

[4] = 3 mg/kg per os, 6 h recording during dark phase
[5] = rats, 3 mg/kg orally in peanut oil, 12 h recording, average ± standard error
[6] = rats, 3 mg/kg orally, 12 h recording, average ± standard error

Which “effect on both sleep phases” value ([1]; known sleeping drug) does the source give for `O=C1CCC(N2C(=O)c3ccccc3C2=O)C(=O)N1` (centres unmarked) [thalidomide] here?
The value was “extends both sleep phases”.

For `N#Cc1c[nH]c2c(C(=O)N3CCN(CCc4ccc(F)cc4)CC3)cccc12` [(3-cyano-1H-indol-7-yl)-[4-(4-fluorophenethyl)piperazin-1-yl]methanone], which “average increase in non-REM sleep” value (rats [2]; [4]) is on record?
Its value is “about 4 min/h”.

And the “maximum increase in non-REM sleep” value (rats [2]; [4])?
Its value is “about 5 minutes per hour”.

And the “extension of REM sleep, average” value (rats [2]; 6 h dark phase)?
Its value is 0.8 min/h.

What about the “extension of REM sleep, maximum” value (rats [2]; 6 h dark phase) of the same compound?
Its value is 2 min/h.

And the “what the change in REM sleep results from” value (rats [2]; 6 h dark phase)?
Its value is “increase in the number of REM episodes”.

And the “relative delta power in the rat EEG, difference from the control level” value (rats [3]; FIG. 1, as a function of the time of day)?
The value was “significantly increased overall”.

And the “NREM sleep Total Time” value (rats [3]; [5])?
Its value is 232.8 ± 13.1 min.

What about the “REM sleep Total Time” value (rats [3]; [5]) of the same compound?
The value was 45.3 ± 3.8 min.

And the “Wakefulness Total Time” value (rats [3]; [5])?
The value was 440.6 ± 15.1 min.

What about the Inter-REM interval (rats [3]; [6]) of the same compound?
Its Inter-REM interval is 28.8 ± 3.0 min.

What about the “NREM sleep Episode Duration” value (rats [3]; [6]) of the same compound?
The value was 184.8 ± 9.5 s.

What about the “REM Latency” value (rats [3]; [6]) of the same compound?
The value was 5.2 ± 0.3 min.

And the “REM sleep Episode Duration” value (rats [3]; [6])?
Its value is 93.1 ± 6.6 s.

What about the “Wakefulness Episode Duration” value (rats [3]; [6]) of the same compound?
Its value is 422.5 ± 29.3 s.

For `Cc1nnc2n1-c1ccc(Cl)cc1C(c1ccccc1Cl)=NC2` [triazolam, reference compound], which “what the change in REM sleep results from” value (rats [2]; 6 h dark phase) is on record?
Its value is “reduction in the duration of the individual REM phases”.

And the “extension of non-REM sleep” value (rats [2]; dose 0.1 mg/kg, 6 h dark phase)?
Its value is 2 min/h.

What about the “extension of non-REM sleep (maximum effect)” value (rats [2]; dose 0.4 mg/kg, 6 h dark phase) of the same compound?
The value was 6.5 min/h.

For `CCc1nn(CCCN2CCN(c3cccc(Cl)c3)CC2)c(=O)n1CCOc1ccccc1` [nefazodone], which “effect on REM sleep” value ([1]; literature report) is on record?
Its value is “extend REM sleep”.

What about the “effect on slow-wave phases 3 and 4 of non-REM sleep” value ([1]; literature report) of the same compound?
The value was “remain unchanged”.
